Measured values from US20190105367A1, “ANTIMICROBIAL 4-OXOQUINOLIZINES” (Emergent Product Development Gaithersburg Inc., priority 2011, published 2019).
Values after ≈ are worked out from the molar mass of the structure shown. Read-outs that look alike come from different tables or passages of the source.

Key:
[1] = tested on: A. baumannii A473; experiment: MIC without and with sub-inhibitory polymyxin B (Example 4); assay type: cell-based, Acinetobacter baumannii; details: +0.06 μg/ml PB, 2nd experiment
[2] = tested on: A. baumannii A387; experiment: as above; assay type: cell-based, Acinetobacter baumannii; details: for MIC without PB/MIC + PB: A. baumannii A387; for MIC: Acinetobacter baumannii
[3] = tested on: A. baumannii ATCC 19606; experiment: Preliminary MBC without and with sub-inhibitory polymyxin B (Example 4); assay type: cell-based, Acinetobacter baumannii; details: Acinetobacter baumannii
[4] = tested on: Acinetobacter sp. (H064200250); experiment: as above; assay type: cell-based; details: Acinetobacter
How it was run: (§1)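 Bactericidal endpoint scored visually on plates incubated at 37° C (18-20 hours): the lowest concentration where growth fell about 90% versus the positive control, generally leaving one colony or none.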

[5] = tested on: A. baumannii A489; experiment: MIC without and with sub-inhibitory polymyxin B (Example 4); assay type: cell-based, Acinetobacter baumannii; details: for MIC without PB/MIC + PB: A. baumannii A489; for MIC: Acinetobacter baumannii
[6] = tested on: A. baumannii NCTC 13301; experiment: as above; assay type: cell-based, Acinetobacter baumannii; details: A. baumannii NCTC 13301; +[…] PB; 2nd experiment
[7] = tested on: A. baumannii A472; experiment: Preliminary MBC without and with sub-inhibitory polymyxin B (Example 4); assay type: cell-based, Acinetobacter baumannii; details: Acinetobacter baumannii, A472, read-out: MBC +[…] PB, A. baumannii A472; +[…] polymyxin B; preliminary MBC; 1st experiment
[8] = tested on: A. baumannii A387; experiment: as above; assay type: cell-based, Acinetobacter baumannii; details: Acinetobacter baumannii
[9] = tested on: A. baumannii ATCC 19606; experiment: MIC without and with sub-inhibitory polymyxin B (Example 4); assay type: cell-based, Acinetobacter baumannii; details: for MIC without PB/MIC + PB: A. baumannii ATCC 19606; for MIC: Acinetobacter baumannii
[10] = tested on: A. baumannii A472; experiment: as above; assay type: cell-based, Acinetobacter baumannii; details: 1st experiment
[11] = tested on: Acinetobacter sp. (H064200250); experiment: as above; assay type: cell-based
[12] = tested on: A. baumannii A390; experiment: as above; assay type: cell-based, Acinetobacter baumannii; details: +0.06 μg/ml PB, 2nd experiment
[13] = tested on: A. baumannii A329; experiment: Preliminary MBC without and with sub-inhibitory polymyxin B (Example 4); assay type: cell-based, Acinetobacter baumannii; details: Acinetobacter baumannii, A329, A. baumannii A329, +0.06 μg/ml PB, 2nd experiment, read-out: MBC
[14] = tested on: A. baumannii A401; experiment: MIC without and with sub-inhibitory polymyxin B (Example 4); assay type: cell-based, Acinetobacter baumannii; details: for MIC: Acinetobacter baumannii
[15] = tested on: strains of A. baumannii and one strain of Acinetobacter sp.; experiment: MIC with sub-inhibitory concentrations (0.25x MIC) of polymyxin B, panel of Acinetobacter strains (Example 4); assay type: cell-based
[16] = tested on: A. baumannii J2; experiment: Preliminary MBC without and with sub-inhibitory polymyxin B (Example 4); assay type: cell-based, Acinetobacter baumannii; details: Acinetobacter baumannii, J2, read-out: MBC +[…] PB, A. baumannii J2; +[…] polymyxin B; preliminary MBC; 1st experiment
[17] = tested on: A. baumannii J2; experiment: MIC without and with sub-inhibitory polymyxin B (Example 4); assay type: cell-based, Acinetobacter baumannii; details: for MIC without PB/MIC + PB: A. baumannii J2
[18] = tested on: A. baumannii NCTC 13301; experiment: as above; assay type: cell-based, Acinetobacter baumannii
[19] = tested on: A. baumannii A14; experiment: as above; assay type: cell-based, Acinetobacter baumannii; details: 1st experiment
[20] = tested on: A. baumannii A473; experiment: Preliminary MBC without and with sub-inhibitory polymyxin B (Example 4); assay type: cell-based, Acinetobacter baumannii; details: Acinetobacter baumannii, A473, A. baumannii A473, +0.06 μg/ml PB, 2nd experiment, read-out: MBC
How it was run: as §1

[21] = tested on: A. baumannii A390; experiment: as above; assay type: cell-based, Acinetobacter baumannii; details: Acinetobacter baumannii, A390, A. baumannii A390, +0.06 μg/ml PB, 2nd experiment, read-out: MBC
How it was run: as §1

[22] = tested on: A. baumannii NCTC 13301; experiment: as above; assay type: cell-based, Acinetobacter baumannii; details: Acinetobacter baumannii
How it was run: as §1

[23] = tested on: A. baumannii A14; experiment: as above; assay type: cell-based, Acinetobacter baumannii; details: Acinetobacter baumannii, 2nd experiment, read-out: MBC
How it was run: as §1

[24] = tested on: A. baumannii A401; experiment: as above; assay type: cell-based, Acinetobacter baumannii; details: Acinetobacter baumannii
[25] = ratio, PB 0.06 μg/ml, 1st experiment

SMILES: Cc1c(-c2ccc(N)c(F)c2)ccn2c(=O)c(C(=O)O)cc(C3CC3)c12 [Compound 1, 8-(3-fluoro-4-amino-phenyl)-1-cyclopropyl-9-methyl-4-oxo-quinolizine-3-carboxylic acid]
- MIC without PB/MIC + PB ([1]; A. baumannii A473): 8
- MIC ([1]; Acinetobacter baumannii, A473, A. baumannii A473, read-out: MIC): 1 µg/mL (≈ 2.84 µM)
- MIC without PB/MIC + PB ([2]; +0.06 μg/ml PB, 2nd experiment): ≥128
- MIC without PB/MIC + PB [2, 25]: ≥32
- MIC ([2]; A387, A. baumannii A387, +0.06 μg/ml PB, 2nd experiment, read-out: MIC): ≤ 0.03 µg/mL
- MIC ([2]; A387, read-out: MIC +0.06 μg/ml PB, A. baumannii A387, +0.06 μg/ml polymyxin B, 1st experiment): ≤ 0.03 µg/mL
- MBC ([3]; ATCC19606, A. baumannii ATCC 19606, +0.06 μg/ml PB, 2nd experiment, read-out: MBC): ≤ 0.03 µg/mL
- MBC ([3]; ATCC19606, read-out: MBC +0.06 μg/ml PB, A. baumannii ATCC 19606, +0.06 μg/ml polymyxin B, 1st experiment): ≤ 0.03 µg/mL
- MBC [4]: ≤ 0.03 µg/mL
- MBC ([4]; read-out: MBC +[…] PB, Acinetobacter spp. H064200250, +[…] polymyxin B, preliminary MBC, 1st experiment): 0.25 µg/mL (≈ 0.709 µM)
- MIC without PB/MIC + PB ([5]; +[…] PB, 2nd experiment): ≥512
- MIC without PB/MIC + PB ([5]; ratio, PB […], 1st experiment): ≥128
- MIC ([5]; A489, A. baumannii A489, +[…] PB, 2nd experiment, read-out: MIC): ≤ 0.03 µg/mL
- MIC ([5]; A489, read-out: MIC +[…] PB, A. baumannii A489, +[…] polymyxin B, 1st experiment): ≤ 0.03 µg/mL
- MIC without PB/MIC + PB [6]: ≥1024
- MBC [7]: ≤ 0.03 µg/mL
- MBC ([8]; A387, A. baumannii A387, +0.06 μg/ml PB, 2nd experiment, read-out: MBC): ≤ 0.03 µg/mL
- MBC ([8]; A387, read-out: MBC +0.06 μg/ml PB, A. baumannii A387, +0.06 μg/ml polymyxin B, 1st experiment): ≤ 0.03 µg/mL
- MIC without PB/MIC + PB ([9]; +0.06 μg/ml PB, 2nd experiment): ≥8
- MIC without PB/MIC + PB [9, 25]: ≥8
- MIC ([9]; ATCC19606, A. baumannii ATCC 19606, +0.06 μg/ml PB, 2nd experiment, read-out: MIC): ≤ 0.03 µg/mL
- MIC ([9]; ATCC19606, read-out: MIC +0.06 μg/ml PB, A. baumannii ATCC 19606, +0.06 μg/ml polymyxin B, 1st experiment): ≤ 0.03 µg/mL
- MIC without PB/MIC + PB ([10]; A. baumannii A472, ratio, PB […]): ≥256
- MIC ([10]; Acinetobacter baumannii, A472, read-out: MIC +[…] PB, A. baumannii A472, +[…] polymyxin B): ≤ 0.03 µg/mL
- MIC without PB/MIC + PB ([11]; Acinetobacter spp. H064200250 (OXA51), +[…] PB, 2nd experiment): ≥512
- MIC without PB/MIC + PB ([11]; Acinetobacter spp. H064200250, ratio, PB […], 1st experiment): ≥256
- MIC ([11]; Acinetobacter, read-out: MIC +[…] PB, Acinetobacter spp. H064200250, +[…] polymyxin B, 1st experiment): ≤ 0.03 µg/mL
- MIC without PB/MIC + PB ([12]; A. baumannii A390): ≥512
- MIC ([12]; Acinetobacter baumannii, A390, A. baumannii A390, read-out: MIC): ≤ 0.03 µg/mL
- MBC [13]: 2 µg/mL (≈ 5.68 µM)
- MIC without PB/MIC + PB ([14]; A baumannii A 401, ratio, PB 0.06 μg/ml, 1st experiment): ≥128
- MIC ([14]; A401, A baumannii A 401, +0.06 μg/ml PB, 2nd experiment, read-out: MIC): ≤ 0.03 µg/mL
- MIC ([14]; A401, read-out: MIC +0.06 μg/ml PB, A baumannii A 401, +0.06 μg/ml polymyxin B, 1st experiment): ≤ 0.03 µg/mL
- MIC range with PB (0.25x MIC) Oct. 1, 2008 n = 8 ([15]; 1st experiment, […] polymyxin B, ATCC 19606, A329, A390 and A473 not taken): ≤0.03 to 0.06 µg/mL
- MIC range with PB (0.25x MIC) Oct. 14, 2008 n = 11 ([15]; 2nd experiment, 0.06 μg/ml polymyxin B, all strains except the ATCC strain): ≤0.03 to 2 µg/mL
- MBC [16]: ≤ 0.03 µg/mL
- MIC without PB/MIC + PB ([17]; +[…] PB, 2nd experiment): ≥512
- MIC without PB/MIC + PB ([17]; ratio, PB […], 1st experiment): ≥256
- MIC ([17]; Acinetobacter baumannii, J2, read-out: MIC +[…] PB, A. baumannii J2, +[…] polymyxin B, 1st experiment): ≤ 0.03 µg/mL
- MIC without PB/MIC + PB ([18]; A. baumannii NCTC 13301, ratio, PB […], 1st experiment): ≥1024
- MIC ([18]; Acinetobacter baumannii, NCTC13301, read-out: MIC +[…] PB): ≤ 0.03 µg/mL
- MIC +0.06 μg/ml PB ([19]; +0.06 μg/ml polymyxin B): 0.06 µg/mL
- MIC ([19]; Acinetobacter baumannii, 24 h, without polymyxin B, read-out: MIC without PB): 32 µg/mL (≈ 90.8 µM)
- MIC without PB/MIC + PB ([19]; ratio, PB 0.06 μg/ml): 512
- MBC [20]: 1 µg/mL (≈ 2.84 µM)
- MBC [21]: ≤ 0.03 µg/mL
- MBC ([22]; NCTC13301): ≤ 0.03 µg/mL
- MBC ([22]; NCTC13301, read-out: MBC +[…] PB): 0.06 µg/mL (≈ 0.17 µM)
- MBC ([23]; A14, A. baumannii A14, +0.06 μg/ml PB): 0.06 µg/mL (≈ 0.17 µM)
- MBC ([23]; A14, A. baumannii A14, without PB): 32 µg/mL (≈ 90.8 µM)
- MBC ([24]; A401, A baumannii A 401, +0.06 μg/ml PB, 2nd experiment, read-out: MBC): ≤ 0.03 µg/mL
- MBC ([24]; A401, read-out: MBC +0.06 μg/ml PB, A baumannii A 401, +0.06 μg/ml polymyxin B, 1st experiment): ≤ 0.03 µg/mL
